Tests used:
NS3/4A H77C strain = target: T1, NS3/4A H77C strain (Hepatitis C virus genotype 1a, UniProt P27958, C1454S); test: Recombinant HCV NS3/4A protease complex FRET peptide assay, H77C strain; format: biochemical, HCV genotype 1a
T1 construct: DNA encoding the recombinant HCV NS3/4A protease complex (amino acid 1027 to 1711) for these strains; inferred from pET21b vector and Ni-NTA purification; made in house; host or cells: E. coli BL21 (DE3)
From the text: (§1) The purpose of this in vitro assay was to measure the inhibition of HCV NS3 protease complexes, derived from the BMS, H77C or J416S strains, as described below, by compounds of the present invention. This assay provides an indication of how effective compounds of the present invention would be in inhibiting HCV […] proteolytic activity.
(§2) Serum from an HCV-infected patient was obtained from Dr. T. Wright, San Francisco Hospital. An engineered full-length cDNA template of the HCV genome (BMS strain) was constructed from DNA fragments obtained by reverse transcription-PCR (RT-PCR) of serum RNA and using primers selected on the basis of homology between other genotype 1a strains. From the determination of the entire genome sequence, a genotype 1a was assigned to the HCV isolate according to the classification of Simmonds et al. (See P Simmonds, K A Rose, S Graham, S W Chan, F McOmish, B C Dow, E A Follett, P L Yap and H Marsden, J. Clin. Microbiol., 31(6), 1493-1503 (1993)). […] The infectious clones, H77C (1a genotype) and J4L6S (1b genotype) were obtained from R. Purcell (NIH) and the sequences are published in genebank (AAB67036, see Yanagi, M., Purcell, R. H., Emerson, S. U. and Bukh, J. Proc. Natl. Acad. Sci. U.S.A. 94(16),8738-8743 (1997); AF054247, see Yanagi, M., St Claire, M., Shapiro, M., Emerson, S. U., Purcell, R. H. and Bukh, J, Virology 244 (1), 161-172. (1998)). […]

NS3/4A J4L6S strain = target: T2, NS3/4A J4L6S strain (Hepatitis C virus genotype 1b, UniProt O92972, C1454S/C1711G); test: Recombinant HCV NS3/4A protease complex FRET peptide assay, J4L6S strain; format: biochemical, HCV genotype 1b
T2 construct: DNA encoding the recombinant HCV NS3/4A protease complex (amino acid 1027 to 1711) for these strains; inferred from pET21b vector and Ni-NTA purification; made in house; host or cells: E. coli BL21 (DE3)
T2 sequence (O92972 1027-1711 C1454S/C1711G): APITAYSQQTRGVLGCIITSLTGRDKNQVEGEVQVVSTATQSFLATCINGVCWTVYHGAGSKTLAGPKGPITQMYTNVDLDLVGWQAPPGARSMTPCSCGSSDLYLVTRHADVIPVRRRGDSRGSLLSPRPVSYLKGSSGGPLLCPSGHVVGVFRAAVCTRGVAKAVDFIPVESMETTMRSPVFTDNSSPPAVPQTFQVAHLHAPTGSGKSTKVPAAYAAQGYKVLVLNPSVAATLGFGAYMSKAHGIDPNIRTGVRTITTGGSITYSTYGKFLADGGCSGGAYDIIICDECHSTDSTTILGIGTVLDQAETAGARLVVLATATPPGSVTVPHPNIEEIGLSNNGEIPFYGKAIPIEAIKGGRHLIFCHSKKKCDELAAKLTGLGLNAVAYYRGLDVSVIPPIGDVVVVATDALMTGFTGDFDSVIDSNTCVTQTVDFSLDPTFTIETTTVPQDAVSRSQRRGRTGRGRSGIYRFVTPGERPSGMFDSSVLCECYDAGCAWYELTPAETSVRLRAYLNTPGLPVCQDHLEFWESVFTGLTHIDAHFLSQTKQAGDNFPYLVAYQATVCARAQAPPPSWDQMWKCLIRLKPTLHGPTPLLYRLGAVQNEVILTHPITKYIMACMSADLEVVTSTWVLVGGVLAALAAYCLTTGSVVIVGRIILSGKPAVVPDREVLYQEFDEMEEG
From the text: as §1, §2

human liver cathepsin B = target: T3, human liver cathepsin B (Homo sapiens, UniProt P07858); test: Specificity assay, human liver cathepsin B; format: biochemical
T3 construct: from tissue; host or cells: liver
Procedure: (§3) The specificities of compounds of the present invention were determined against a variety of serine proteases: human leukocyte elastase, porcine pancreatic elastase and bovine pancreatic α-chymotrypsin and one cysteine protease: human liver cathepsin B. In all cases a 96-well plate format protocol using calorimetric […] (pNA) substrate specific for each enzyme was used as described previously (Patent WO 00/09543) with some modifications.
(§4) Each assay included a 1 h enzyme-inhibitor pre-incubation at RT followed by addition of substrate and hydrolysis to ˜30% conversion as measured on a Spectramax Pro microplate reader. Compound concentrations varied from 100 to 0.4 μM depending on their potency.
(§5) The final conditions and protocol for each assay was as reported previously (Patent WO 00/09543) with the inclusion of an additional assay: • 50 mM Tris-HCl pH 8, 0.5M Na2SO4, 50 mM NaCl, 0.1 mM EDTA, 3% DMSO, 0.01% Tween-20 with 133 μM succ-AAA-PNA and 20 nM Elastase
(§6) The percentage of inhibition was calculated using the formula: [1−((UVinh−UVblank)/(UVctl−UVblank))]×100

[1] = target: T4, bovine pancreatic α-chymotrypsin (Bos taurus, UniProt P00766); test: Specificity assay, bovine pancreatic α-chymotrypsin; format: biochemical
T4 construct: from tissue; host or cells: pancreas (from the enzyme's name only)
Procedure: as §3, §4, §5, §6

NS3/4A BMS strain = NS3/4A BMS strain (Hepatitis C virus genotype 1a, UniProt P27958, C1454S/C1711G); test: Recombinant HCV NS3/4A protease complex FRET peptide assay, BMS strain; format: biochemical, HCV genotype 1a; details: enzyme assay
NS3/4A BMS strain, sequence (P27958 1027-1711, stated change not applied): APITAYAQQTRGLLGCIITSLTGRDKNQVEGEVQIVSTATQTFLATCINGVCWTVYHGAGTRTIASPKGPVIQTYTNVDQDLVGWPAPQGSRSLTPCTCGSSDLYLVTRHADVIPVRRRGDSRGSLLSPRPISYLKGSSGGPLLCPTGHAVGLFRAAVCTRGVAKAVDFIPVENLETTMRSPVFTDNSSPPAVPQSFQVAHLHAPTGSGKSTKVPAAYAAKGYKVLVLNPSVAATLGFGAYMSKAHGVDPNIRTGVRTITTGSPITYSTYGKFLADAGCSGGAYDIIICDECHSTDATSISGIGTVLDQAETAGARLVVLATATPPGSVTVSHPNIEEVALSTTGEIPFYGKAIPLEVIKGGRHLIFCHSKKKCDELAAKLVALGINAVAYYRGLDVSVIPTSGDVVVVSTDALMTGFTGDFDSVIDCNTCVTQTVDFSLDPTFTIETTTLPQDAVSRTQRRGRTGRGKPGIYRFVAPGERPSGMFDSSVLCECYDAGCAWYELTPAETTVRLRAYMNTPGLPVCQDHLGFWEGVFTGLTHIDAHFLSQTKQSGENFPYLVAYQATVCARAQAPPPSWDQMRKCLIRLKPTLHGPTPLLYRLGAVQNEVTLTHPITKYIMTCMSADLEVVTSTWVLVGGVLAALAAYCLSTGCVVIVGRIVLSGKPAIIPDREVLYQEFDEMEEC
NS3/4A BMS strain, sequence (P27958 1027-1711, stated change not applied): as above
From the text: as §1, §2

T1 sequence (P27958 1027-1657 C1454S): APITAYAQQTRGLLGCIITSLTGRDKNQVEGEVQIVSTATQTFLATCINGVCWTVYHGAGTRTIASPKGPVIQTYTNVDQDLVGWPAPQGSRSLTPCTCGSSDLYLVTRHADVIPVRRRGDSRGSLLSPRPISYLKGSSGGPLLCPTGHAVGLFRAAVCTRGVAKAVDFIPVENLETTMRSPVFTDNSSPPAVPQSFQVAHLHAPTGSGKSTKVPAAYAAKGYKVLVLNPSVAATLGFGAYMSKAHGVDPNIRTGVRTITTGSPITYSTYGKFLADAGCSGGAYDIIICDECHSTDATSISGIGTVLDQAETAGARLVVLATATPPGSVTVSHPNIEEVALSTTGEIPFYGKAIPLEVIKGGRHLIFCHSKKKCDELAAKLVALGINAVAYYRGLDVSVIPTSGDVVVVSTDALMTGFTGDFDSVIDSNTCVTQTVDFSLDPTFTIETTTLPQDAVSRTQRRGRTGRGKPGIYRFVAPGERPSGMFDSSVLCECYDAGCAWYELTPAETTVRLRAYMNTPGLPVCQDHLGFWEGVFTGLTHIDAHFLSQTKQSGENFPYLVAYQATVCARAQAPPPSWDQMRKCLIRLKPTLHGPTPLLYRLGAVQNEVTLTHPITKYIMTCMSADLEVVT
T1 sequence (P27958 1658-1711 partner, looked up, stated change not applied): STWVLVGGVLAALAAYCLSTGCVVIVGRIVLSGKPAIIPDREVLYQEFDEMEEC

## C=CC1C[C@]1(NC(=O)[C@@H]1C[C@@H](Oc2cc(-c3ccccc3)nc3cc(OC)ccc23)CN1C(=O)C(NC(=O)OC(C)(C)C)C(C)(C)C)C(=O)NS(=O)(=O)c1ccc(NC(C)=O)cc1 (some centres unmarked) [Compound 58]
NS3/4A H77C strain
  IC50: 10 nM
NS3/4A J4L6S strain
  IC50: 8 nM
Human liver cathepsin B
  IC50: > 100000 nM
[1]
  IC50: > 100000 nM
NS3/4A BMS strain
  IC50: 17 nM
